Here are results for three compounds from publication PMC8000395, “Effective Small Molecule Antibacterials from a Novel Anti-Protein Secretion Screen” (Microorganisms, 2021).

The test system of one test is E. coli BW25113ΔtolC. Put plainly: Antimicrobial activity test (growth, OD600). Conditions: for Higher sensitivity of ΔtolC and imp-2413+ derivatives compared to BW25113: viability, Figure 5A.
A further test relates to E. coli MC4100. Kind of test: Antimicrobial activity test (growth, OD600). It counts as cell-based. The following applies: Escherichia coli, MC4100; 20 h, 37 °C, OD600; read-out: Bacterial Viability IC50, E. coli MC4100.
Another test has as its system Gram-positive bacteria. Kind of test: Antimicrobial activity test, summary over Gram-positive bacteria. The test is classed as cell-based.
In a further test the test system is Morganella morganii. Put plainly: Antimicrobial activity test (growth, OD600). The test is classed as cell-based. Conditions: read-out: Bacterial Viability (IC50).
Test [1] deals with PhoA secretion in E. coli strain BL21 (pLysS). Put plainly: Luminescence-based HTS assay of in vivo PhoA secretion. Conditions: Escherichia coli, BL21, luminescence-based HTS assay, E. coli BL21; read-out: Inhibition of PhoA Secretion IC50, HTS. It counts as cell-based.
Test [2] has as its system PhoA secretion in BW25113ΔtolC. Put plainly: Lab-scale p-nitrophenyl PhoA secretion assay, ΔtolC strain. The test is classed as cell-based, E. coli.
Test [3] deals with PhoA secretion in E. coli BW25113. Put plainly: Lab-scale p-nitrophenyl PhoA secretion assay, BW25113. It counts as cell-based. Conditions: Escherichia coli, read-out: PhoA secretion in vivo IC50, E. coli BW25113.
Where [4] appears, read: B. subtilis, S. aureus, E. faecalis, S. pneumoniae, M. abscessus, read-out: Viability of Gram-positive bacteria IC50 (range over species).
Setting [5] is: for 80% of strains, selection threshold, Figure 1B, read-out: Bactericidal activity Gram+ IC50.
[6] abbreviates: Escherichia coli, read-out: Inhibition of PhoA Secretion IC50, Lab-Scale (ΔtolC strain), BW25113ΔtolC, p-nitrophenyl assay.
Where [7] appears, read: Escherichia coli, read-out: Inhibiton of PhoA secretion in ΔtolC strain (Lab-scale) IC50, selection threshold of the screening pipeline, Figure 1B.

Where two headings read alike, the source gives them in different places.

As to `O=C(/C=C/c1csnn1)c1ccccc1Cl` [HSI#01], the half-maximal inhibitory concentration (IC50) (in general, the midpoint of a concentration-inhibition curve) in the test on E. coli BW25113ΔtolC (Escherichia coli, read-out: Viability IC50, BW25113ΔtolC, E. coli strain missing TolC) is less than 14 µM; in the test with E. coli MC4100, greater than 100 µM; with Gram-positive bacteria (setting [4]), 7 to 38 µM; in the test on Gram-positive bacteria (setting [5]), less than 28 µM; in the test with Morganella morganii it was greater than 100 µM; in test [1], 11.9 µM. Further, the IC50 was 1.37 µM in test [2] (setting [6]); less than 2 µM in test [2] (setting [7]); 1.4 µM in test [2] (read-out: Inhibition of PhoA Secretion IC50, Lab-Scale (ΔtolC strain), BW25113ΔtolC, p-nitrophenyl assay); 8.13 µM in test [3]. For the same compound, the “Higher sensitivity of ΔtolC and imp-2413+ derivatives compared to BW25113” value in the test on E. coli BW25113ΔtolC is listed as 2 to 40 times.

On to `O=C(/C=C/c1csnn1)c1cc(Cl)ccc1Cl` [HSI#05], for which the half-maximal inhibitory concentration (IC50) was less than 14 µM in the test on E. coli BW25113ΔtolC (read-out: Viability IC50, BW25113ΔtolC, E. coli strain missing TolC, listed as HSI#5); greater than 100 µM in the test with E. coli MC4100; 7 to 38 µM in the test with Gram-positive bacteria (setting [4]); less than 28 µM in the test with Gram-positive bacteria (setting [5]); greater than 100 µM with Morganella morganii; 35.2 µM in test [1]. For the same compound, the half-maximal inhibitory concentration (IC50) in test [2] (setting [6]) was 0.94 µM; in test [2] (setting [7]) it was less than 2 µM; in test [3] it was 3.2 µM. For the same compound, the “Higher sensitivity of ΔtolC and imp-2413+ derivatives compared to BW25113” value in the test on E. coli BW25113ΔtolC was 2 to 40 times.

Take `O=C(/C=C/c1csnn1)c1cccc2ccccc12` [HSI#10]: the “Higher sensitivity of ΔtolC and imp-2413+ derivatives compared to BW25113” value in the test on E. coli BW25113ΔtolC is reported as 2 to 40 times. Moreover, the half-inhibitory concentration (IC50) is greater than 100 µM with E. coli MC4100; 7 to 38 µM with Gram-positive bacteria (setting [4]); less than 28 µM with Gram-positive bacteria (setting [5]); greater than 100 µM in the test on Morganella morganii; 20 µM in test [1]; 0.99 µM in test [2] (setting [6]). The values for the IC50 in test [2] (setting [7]) and in test [3] were less than 2 µM and 24.9 µM, respectively.
